Results published in patent publication US20070196288A1, “Method of treating periodontitis and of reducing dentinal sensitivity” (Research Foundation of the State University of New York, priority 2006, published 2007).

What was measured:
[1] = system: P. Gingivalis proteins extracted from cell surface and precipitated from cell culture media (gelatin-cleaving / collagenolytic activity); experiment: Gelatin zymography; type: biochemical, P. Gingivalis 381; settings: inhibitor 5 mM in development buffer, 37° C. overnight; both protein preparations (FIGS. 3 and 4)
Source text: Since P. Gingivalis proteases cleave gelatin effectively, the gelatin-cleaving activity of the extracted proteins was checked by zymography, as described by Heussen and Dowdle using 10% Zymogen (Gelatin) Gel 1.0 mm×10 well (Invitrogen Corporation). [Heussen, C. & Dowdle, E. B., “Electrophoretic Analysis of Plasminogen Activators in Polyacrylamide Gels Containing Sodium Dodecyl Sulfate and Copolymerized Substrates”, 102 Anal. Biochem. 196-202 (1980).]
The extracted proteins, with the reducing sample buffer containing 5% mercaptoethanol, was electrophoresed. After electrophoresis, the gel was washed in 50 mM HEPES, pH 7.0, containing 2% Triton X-100 for 30 minutes, and rinsed twice with the same buffer without Triton X-100. The gel was then cut into 3 parts before transferring to a development buffer containing 50 mM HEPES, 5% 2-mercaptoethanol, buffered at pH 7.0. One part was incubated with developing buffer whereas the other two parts were incubated in the presence of inhibitor with varying concentrations of 5 mM and 10 mM. The gel was incubated at 37° C. overnight on a rocker. The incubated gel was then fixed with 50% methanol and 12% acetic acid for 30 minutes, and stained with 0.1% Coomassie blue in 50% methanol and 12% acetic acid to visualize lytic bands.

[2] = pH of the applied solution; type: physicochemical; settings: pH of the solution or product as applied to dentine
[3] = system: cell surface-extracted proteases from P. Gingivalis; experiment: BAPNA hydrolysis by cell surface-extracted proteins; type: biochemical, P. Gingivalis 381; settings: for inhibitory effect on cell surface-extracts (BAPNA hydrolysis): FIG. 2, inhibitor 0.4-2.4 mM tested, 2.4 mM stated for gadolinium nitrate, 5% 2-mercaptoethanol, 37° C., 1 hour; for OD at A405 (p-nitroaniline released): inhibitor concentration 2.4 mM
Method: (§1) All steps in the isolation of P. Gingivalis proteins were carried out at 4° C. […] The cells and culture media were separated by centrifugation at 10,000×g for 10 minutes in a Sorvall centrifuge.
P. Gingivalis cells collected after centrifugation were washed three times with 50 millimolar (“mM”) HEPES buffer, pH 7.0. The washed cells were stirred with 1% Triton X-100 (Fisher Scientific) dissolved in HEPES (Fisher Scientific) at 4° C. for 15 minutes to solubilize cell surface proteins. The cells were centrifuged at 10,000×g in a Sorvall centrifuge for 10 minutes, and the supernatant was collected. [Sojar, H. T., Lee, J. Y., Bedi, G. S. et al., “Purification and Characterization of a Protease from Porphyromonas Gingivalis Capable of Degrading Salt-Solubilized Collagen”, 61 Infect. Immun. […] The amount of protein was estimated using a Spectrophotometer ND-1000 by absorbance at 280 nm.
(§2) Activity of cell surface-extracted and culture-precipitated proteases was assayed by using the synthetic chromogenic substrate benzoyl-L-Arg-p-nitroanilide (BAPNA). [Erlanger, B. F., Kokowsky, N. & Cohen, W., “The Preparation and Properties of Two New Chromogenic Substrates of Trypsin”, 95 Arch. […] Colorimetric values measured as absorbance were obtained using Spectronic 2000 Methodology for culture media-precipitated proteins.
The reaction mixture consisted of 100 μl of 100 mM substrate in 50 mM HEPES buffer, pH 7, 50 μl of an approximately 1 mg/ml of proteins was used to test chromogenic activity of the substrate. With 5% of 2-mercaptoethanol as reducing agent, the volume was made to 500 μl. Various volumes of the inhibitor 0.4 mM; 0.8 mM; 1.2 mM; 1.6 mM; 2.0 mM; 2.4 mM were used.
(§3) After incubation at 37° C. for 1 hour, 100 μl of 5 N acetic acid was added to stop the reaction in both experimental samples. The total volume was made to 1 ml by addition of water. The p-nitroaniline released was determined by measuring A405.

[4] = system: cell culture media-precipitated proteases from P. Gingivalis; experiment: BAPNA hydrolysis by culture media-precipitated proteins; type: biochemical, P. Gingivalis 381; settings: FIG. 1; inhibitor 2-10 mM tested, 10 mM stated for gadolinium nitrate; 5% 2-mercaptoethanol, 37° C., 1 hour
Method: as §1
To the cell-separated culture supernatant, ammonium sulfate was added to achieve 80% saturation in a volume of 400 ml. After 4 hours, the precipitate was collected by centrifugation at 11,000×g for 45 minutes. It was then dissolved in HEPES and dialyzed against 4 liters of HEPES buffer. The precipitate formed on dialysis was removed by centrifugation at 10,000×g for 30 minutes, the supernatant was collected, and the precipitated material was discarded. Extracted proteins was analyzed for protein content using a Spectrophotometer ND-1000.
as §2
The reaction mixture consisted of 50 μl of 100 mM substrate in 50 mM HEPES buffer, pH 7, and 25 μl of the sample protease containing 2 mg/ml of protein was used to test chromogenic activity of the substrate. With 5% of 2-mercaptoethanol as reducing agent, volume was made to 250 μl. Various concentrations of the inhibitor 2 mM; 4 mM; 6 mM; 8 mM; 10 mM were used.
as §3

[5] = Dissolution of gadolinium materials; type: physicochemical

Structure (SMILES) | effect on gelatin-cleaving / collagenolytic activity on zymogram [1] | pH [2] | pH ([2]; listed as Gadolinium nitrate) | inhibitory effect on cell surface-extracts (BAPNA hydrolysis) [3] [%] | OD at A405 (p-nitroaniline released) [3] | inhibition of protease activity (BAPNA hydrolysis), cell culture-precipitated proteins [4] [%] | conditions required for dissolution [5]
O.O.O.O.O.O.O=[N+]([O-])[O-].O=[N+]([O-])[O-].O=[N+]([O-])[O-].[Gd+3] [gadolinium nitrate, gadolinium nitrate hexahydrate, (Gd(NO3)3.6H2O)] | inhibited the collagenolytic activity | 4.3 | about 4.3 | ~56 | ~0.43 |  | 
O.O.O.O.O.O.[Cl-].[Cl-].[Cl-].[Gd+3] [gadolinium chloride, gadolinium chloride hexahydrate (GdCl3.6H2O)] |  |  |  | ~54 | ~0.45 | ~70 | 
O=C([O-])C(=O)[O-].O=C([O-])C(=O)[O-].O=C([O-])C(=O)[O-].[Gd+3].[Gd+3] [Gadolinium oxalate] |  |  |  |  |  |  | required very acidic conditions for dissolution
O.O.O.O.O.O.[Cl][Sm]([Cl])[Cl] [samarium chloride, samarium chloride hexahydrate, (SmCl3.6H2O)] |  |  |  | ~59 | ~0.39 | ~75 | 
[Gd] [gadolinium] | negative staining bands were absent |  |  |  |  |  | 
O.O.O.O.O.O.O.[Ce+3].[Cl-].[Cl-].[Cl-] [cerium chloride, cerium chloride heptahydrate (CeCl3.7H2O)] |  |  |  | ~32 | ~0.66 | ~11 | 
